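Each compound was tested at five concentrations against cells in 96-well plates for 48 hours. GI50: concentration for 50% inhibition of growth.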 The source made the active and inactive calls. No stated cut-off is given here; in the data, active = GI50 up to about 1.1 µM and inactive = higher.

Test systems include HCC 2998; HOP-92; Hs-578T; UACC-62; SK-MEL-2; CCRF-CEM; BT-549; HL-60; SF-539; PC-3; NCI-H460; HCT-15; Malme-3M; EKVX; 786-0; HT-29; KM12; T47D; ACHN; SW-620.
Experiment in all cases: inhibition of tumour cell growth, NCI panel, 48 h

In the case of `C=C1C(=O)OC2C3OC(C)(CCC(O)C3COC(C)=O)CC(OC(=O)/C(=C/C)COC(C)=O)C12` (stereo not given), the GI50 with HCC 2998 is 1.3 µM (inactive); in the assay on HOP-92, 0.159 µM (active); in the assay on Hs-578T it was 0.634 µM (active); with UACC-62, 0.458 µM (active); in the assay on SK-MEL-2, 1.13 µM (inactive); with CCRF-CEM it was 0.0176 µM (active). For the same compound, the GI50 in the assay with BT-549 was 0.18 µM (active); in the assay with HL-60, 0.0248 µM (active); with SF-539, 1.58 µM (inactive); in the assay with PC-3 it was 1.48 µM (inactive); in the assay with NCI-H460, 0.752 µM (active); in the assay with HCT-15 it was 0.061 µM. Moreover, the GI50 is 0.0242 µM (active) with Malme-3M; 0.424 µM (active) with EKVX; 0.138 µM (active) in the assay with 786-0; 0.154 µM (active) in the assay with HT-29; 1.5 µM (inactive) with KM12; 0.142 µM (active) in the assay on T47D. For the same compound, the GI50 was 0.0925 µM (active) with ACHN and 0.0807 µM (active) in the assay on SW-620.
For `COc1cc(/C=C2\CCC/C(=C\c3ccc(O)c(OC)c3)C2=O)ccc1O` [CYCLOVALONE], the GI50 is 2.77 µM (inactive) with HCC 2998; 5.2 µM (inactive) in the assay on HOP-92; 4.16 µM (inactive) in the assay with Hs-578T; 1.96 µM (inactive) in the assay with UACC-62; 3.56 µM (inactive) in the assay on SK-MEL-2; 0.525 µM (active) in the assay on CCRF-CEM. Further, the GI50 is 3.59 µM (inactive) in the assay on BT-549; 1.47 µM (inactive) with HL-60; 2.04 µM (inactive) with SF-539; 3.66 µM (inactive) in the assay with PC-3; 2.59 µM (inactive) in the assay with NCI-H460; 2.34 µM in the assay with HCT-15. Besides, the GI50 with Malme-3M is 2.17 µM (inactive); in the assay with EKVX, 6.84 µM (inactive); with 786-0, 2.07 µM (inactive); in the assay on HT-29, 7.6 µM (inactive); with KM12, 2.87 µM (inactive); with T47D it was 3.29 µM (inactive). Moreover, the GI50 is 2.06 µM (inactive) with ACHN and 2.7 µM (inactive) in the assay on SW-620.
`O=c1[nH]c(=O)n(C/C=C/CBr)nc1Br`: the GI50 in the assay with HCC 2998 was 14.9 µM (inactive); in the assay with HOP-92, 13.4 µM (inactive); in the assay on Hs-578T it was 19 µM (inactive); in the assay on UACC-62, 13.8 µM (inactive); in the assay with SK-MEL-2 it was 12.6 µM (inactive); in the assay on CCRF-CEM, 7.74 µM (inactive). Moreover, the GI50 in the assay on BT-549 was 14.5 µM (inactive); in the assay on HL-60, 5.87 µM (inactive); in the assay on SF-539, 14 µM (inactive); with PC-3, 12.2 µM (inactive); in the assay with NCI-H460, 17.5 µM (inactive); in the assay with HCT-15, 14.5 µM. The GI50 in the assay with Malme-3M was 14.2 µM (inactive); in the assay with EKVX, 15.1 µM (inactive); with 786-0, 12.6 µM (inactive); in the assay on HT-29, 12.9 µM (inactive); in the assay with KM12, 14.9 µM (inactive); in the assay on T47D, 12.6 µM (inactive). Besides, the GI50 was 13 µM (inactive) with ACHN and 14.4 µM (inactive) in the assay on SW-620.
`COC1(C)CP(=O)(OC(C)C)CC(C)=C1Cl` (stereo not given): the GI50 was 27 µM (inactive) in the assay with HCC 2998; 11.2 µM (inactive) in the assay on HOP-92; 9.84 µM (inactive) in the assay on Hs-578T; 10.2 µM (inactive) with UACC-62; 6.41 µM (inactive) in the assay on SK-MEL-2; 3.66 µM (inactive) in the assay on CCRF-CEM. The GI50 is 12.7 µM (inactive) with BT-549; 10.9 µM (inactive) in the assay on HL-60; 10.7 µM (inactive) with SF-539; 25.5 µM (inactive) in the assay with PC-3; 18.3 µM (inactive) with NCI-H460; 12.3 µM in the assay with HCT-15. Moreover, the GI50 in the assay with Malme-3M is 17.3 µM (inactive); in the assay with EKVX, 14.6 µM (inactive); in the assay with 786-0, 19 µM (inactive); in the assay with HT-29, 12.3 µM (inactive); with KM12, 15.5 µM (inactive); in the assay on T47D it was 13.6 µM (inactive). The GI50 with ACHN was 18.4 µM (inactive); in the assay with SW-620, 14.4 µM (inactive).
As for `COc1ccc2oc(=O)c(-c3nc4ccccc4s3)cc2c1`, the GI50 is > 100 µM (inactive) in the assay with HCC 2998; 19.7 µM (inactive) with HOP-92; 23.2 µM (inactive) in the assay with Hs-578T; 43.5 µM (inactive) in the assay with UACC-62; > 100 µM (inactive) with SK-MEL-2; > 38.5 µM (inactive) in the assay with CCRF-CEM. The GI50 with BT-549 was > 63.7 µM (inactive); in the assay on HL-60, > 100 µM (inactive); in the assay on SF-539 it was 3.92 µM (inactive); with PC-3, 63.8 µM (inactive); with NCI-H460 it was 16.6 µM (inactive); in the assay with HCT-15 it was over 79.6 µM. Also, the GI50 in the assay on Malme-3M is 8.61 µM (inactive); with EKVX, 19.2 µM (inactive); with 786-0, 7.82 µM (inactive); in the assay with HT-29, 13.6 µM (inactive); with KM12, > 55.3 µM (inactive); with T47D, 20.6 µM (inactive). For the same compound, the values for the GI50 in the assay with ACHN and in the assay with SW-620 were 5.55 µM (inactive) and 32.6 µM (inactive), respectively.
`COC1CC(OC2CCC3(C)C(=CCC4C3C(OC(C)=O)C(OC(=O)CC(C)C)C3(C)C(C(C)=O)CCC43O)C2)OC(C)C1OC1CC(OC)C(OC2CC(OC)C(OC3OC(C)C(O)C(OC)C3O)C(C)O2)C(C)O1` (stereo not given): the GI50 in the assay with HCC 2998 is 24.4 µM (inactive); in the assay on HOP-92, 22.5 µM (inactive); in the assay on Hs-578T, 49.8 µM (inactive); with UACC-62, 26.1 µM (inactive); in the assay on SK-MEL-2, 24.7 µM (inactive); with CCRF-CEM, 22.6 µM (inactive). Also, the GI50 was 24.5 µM (inactive) in the assay on BT-549; 14.9 µM (inactive) in the assay with HL-60; 21.9 µM (inactive) in the assay with SF-539; 18.5 µM (inactive) in the assay on PC-3; 28.7 µM (inactive) in the assay on NCI-H460; 27.3 µM in the assay on HCT-15. The GI50 with Malme-3M is 43 µM (inactive); in the assay on EKVX, 34.8 µM (inactive); in the assay on 786-0 it was 24.9 µM (inactive); in the assay on HT-29, 19.9 µM (inactive); in the assay on KM12, 33.1 µM (inactive); in the assay on T47D it was 38.2 µM (inactive). Moreover, the results for the GI50 in the assay with ACHN and in the assay with SW-620 were 31.6 µM (inactive) and 31.3 µM (inactive), respectively.
On to `CCC(C)C1NC(=O)C(NC(=O)C(CC(C)C)N(C)C(=O)[C@@H]2C=CCN2C(=O)[C@H](C)O)C(C)OC(=O)[C@H](Cc2ccc(OC)cc2)N(C)C(=O)[C@@H]2CCCN2C(=O)[C@H](CC(C)C)NC(=O)C(C)C(=O)[C@H](C(C)C)OC(=O)CC1O` (stereo not given in full), for which the GI50 is 0.00306 µM (active) in the assay on HCC 2998; 0.00643 µM (active) in the assay on HOP-92; < 0.01 µM (active) with Hs-578T; 0.00119 µM (active) in the assay with UACC-62; < 0.01 µM (active) in the assay on SK-MEL-2; 0.00164 µM (active) in the assay on CCRF-CEM. The GI50 with BT-549 was 0.00365 µM (active); in the assay with HL-60 it was 0.00299 µM (active); in the assay with SF-539, 0.00139 µM (active); in the assay on PC-3, 0.00291 µM (active); with NCI-H460, 0.00215 µM (active); in the assay with HCT-15, 0.0239 µM. Moreover, the GI50 with Malme-3M was 0.00219 µM (active); in the assay with EKVX it was < 0.01 µM (active); with 786-0 it was 0.00185 µM (active); in the assay with HT-29, 0.00252 µM (active); in the assay with KM12, < 0.01 µM (active); in the assay on T47D it was 0.0013 µM (active). The GI50 in the assay on ACHN is 0.00402 µM (active); with SW-620, 0.00308 µM (active).
Consider `CC(=O)NC1C(OCc2ccccc2)OC(CO)C(O)C1OCC(=O)N[C@@H](C)C(=O)N[C@H](CCC(=O)NCCCNc1ccc([N+](=O)[O-])c2[nH]c3ccccc3c(=O)c12)C(N)=O` (stereo not given in full), for which the GI50 is 49.3 µM (inactive) in the assay with HCC 2998; > 100 µM (inactive) in the assay on HOP-92; 26.2 µM (inactive) in the assay with Hs-578T; 36.2 µM (inactive) in the assay with UACC-62; > 100 µM (inactive) in the assay on SK-MEL-2; > 100 µM (inactive) in the assay on CCRF-CEM. Also, the GI50 was 38.4 µM (inactive) with BT-549; > 100 µM (inactive) in the assay with HL-60; 53.2 µM (inactive) with SF-539; > 100 µM (inactive) in the assay with PC-3; 46.1 µM (inactive) in the assay on NCI-H460; 94.2 µM with HCT-15. Besides, the GI50 in the assay on Malme-3M is 27.5 µM (inactive); with EKVX, 43 µM (inactive); in the assay with 786-0 it was 34.2 µM (inactive); with HT-29, 36.8 µM (inactive); with KM12, 93.5 µM (inactive); with T47D it was > 100 µM (inactive). Also, the results for the GI50 with ACHN and with SW-620 were 50.8 µM (inactive) and > 100 µM (inactive), respectively.
`Nc1nc(Cl)c(/N=N/c2ccc(Cl)cc2)c(NCC2(CO)CCC(CCc3ccccc3)C2)n1` (stereo not given): the GI50 in the assay on HCC 2998 was 5.97 µM (inactive); in the assay with HOP-92, 11.1 µM (inactive); with Hs-578T it was 8.51 µM (inactive); in the assay on UACC-62, 10.4 µM (inactive); in the assay on SK-MEL-2, 13.6 µM (inactive); with CCRF-CEM it was 1.21 µM (inactive). The GI50 was 6.81 µM (inactive) in the assay on BT-549; 4.14 µM (inactive) in the assay with HL-60; 14.2 µM (inactive) in the assay on SF-539; 12.2 µM (inactive) in the assay with PC-3; 12.7 µM (inactive) in the assay with NCI-H460; 6.87 µM with HCT-15. Moreover, the GI50 in the assay on Malme-3M is 14.8 µM (inactive); in the assay on EKVX, 8.79 µM (inactive); in the assay on 786-0, 6.32 µM (inactive); in the assay with HT-29, 12.1 µM (inactive); with KM12, 13.2 µM (inactive); in the assay on T47D, 3.94 µM (inactive). Moreover, the GI50 with ACHN is 5.97 µM (inactive); with SW-620 it was 3.92 µM (inactive).

The record behind these values is ChEMBL document CHEMBL1201862, “PubChem BioAssay data set” (2004).
